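Five compound concentrations were applied to cells in 96-well plates for 48 hours; endpoints were derived by simple linear interpolation of the resulting dose-response curve. TGI: concentration producing complete growth inhibition.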
What was measured:
Experiment in all cases: NCI anticancer screen, dose series, 48 h
A498 renal = system: A498 renal
A549 NSCLC = system: A549 NSCLC
ACHN renal = system: ACHN renal
CCRF-CEM leukemia = system: CCRF-CEM leukemia
DMS 114 small cell lung = system: DMS 114 small cell lung
EKVX NSCLC = system: EKVX NSCLC
HCT-116 colon = system: HCT-116 colon
HL-60(TB) leukemia = system: HL-60(TB) leukemia
HOP-62 NSCLC = system: HOP-62 NSCLC
HOP-92 NSCLC = system: HOP-92 NSCLC
HT29 colon = system: HT29 colon
IGROV1 ovarian = system: IGROV1 ovarian
KM12 colon = system: KM12 colon
M14 melanoma = system: M14 melanoma
M19-MEL melanoma = system: M19-MEL melanoma
MOLT-4 leukemia = system: MOLT-4 leukemia
NCI-H226 lung = system: NCI-H226 lung
NCI-H23 lung = system: NCI-H23 lung
NCI-H460 lung = system: NCI-H460 lung
NCI-H522 lung = system: NCI-H522 lung
OVCAR-5 ovarian = system: OVCAR-5 ovarian
OVCAR-8 ovarian = system: OVCAR-8 ovarian
RXF 393 renal = system: RXF 393 renal
RXF-631 renal = system: RXF-631 renal
SF-295 CNS = system: SF-295 CNS
SK-MEL-28 melanoma = system: SK-MEL-28 melanoma
SK-OV-3 ovarian = system: SK-OV-3 ovarian
SNB-19 CNS = system: SNB-19 CNS
SNB-78 CNS = system: SNB-78 CNS
SR leukemia = system: SR leukemia
TK-10 renal = system: TK-10 renal
U251 CNS = system: U251 CNS
UACC-257 melanoma = system: UACC-257 melanoma
UACC-62 melanoma = system: UACC-62 melanoma
UO-31 renal = system: UO-31 renal
786-0 renal = system: 786-0 renal
CAKI-1 renal = system: CAKI-1 renal
COLO 205 colon = system: COLO 205 colon
DLD-1 colon = system: DLD-1 colon
DMS 273 small cell lung = system: DMS 273 small cell lung
HCC-2998 colon = system: HCC-2998 colon
HCT-15 colon = system: HCT-15 colon
K-562 leukemia = system: K-562 leukemia
KM20L2 colon = system: KM20L2 colon
LOX IMVI melanoma = system: LOX IMVI melanoma
LXFL 529 NSCLC = system: LXFL 529 NSCLC
MALME-3M melanoma = system: MALME-3M melanoma
OVCAR-3 ovarian = system: OVCAR-3 ovarian
OVCAR-4 ovarian = system: OVCAR-4 ovarian
RPMI-8226 leukemia = system: RPMI-8226 leukemia
SF-268 CNS = system: SF-268 CNS
SF-539 CNS = system: SF-539 CNS
SK-MEL-5 melanoma = system: SK-MEL-5 melanoma
SN12C renal = system: SN12C renal
SNB-75 CNS = system: SNB-75 CNS
SW-620 colon = system: SW-620 colon
XF 498 CNS = system: XF 498 CNS

C[C@H]1C(=O)c2c(cc(O)c(C3OC(CO)C(O)C(O)C3O)c2O)OC1c1ccc(O)c(O)c1 (some centres undefined)
TGI (A498 renal): > 100 µM
TGI (A549 NSCLC): > 100 µM
TGI (ACHN renal): > 100 µM
TGI (CCRF-CEM leukemia): > 100 µM
TGI (DMS 114 small cell lung): > 100 µM
TGI (EKVX NSCLC): > 100 µM
TGI (HCT-116 colon): > 100 µM
TGI (HL-60(TB) leukemia): > 100 µM
TGI (HOP-62 NSCLC): > 100 µM
TGI (HOP-92 NSCLC): > 100 µM
TGI (HT29 colon): > 100 µM
TGI (IGROV1 ovarian): > 100 µM
TGI (KM12 colon): > 100 µM
TGI (M14 melanoma): > 100 µM
TGI (M19-MEL melanoma): > 100 µM
TGI (MOLT-4 leukemia): > 100 µM
TGI (NCI-H226 lung): 98.9 µM
TGI (NCI-H23 lung): > 100 µM
TGI (NCI-H460 lung): > 100 µM
TGI (NCI-H522 lung): > 100 µM
TGI (OVCAR-5 ovarian): > 100 µM
TGI (OVCAR-8 ovarian): > 100 µM
TGI (RXF 393 renal): > 100 µM
TGI (RXF-631 renal): > 100 µM
TGI (SF-295 CNS): > 100 µM
TGI (SK-MEL-28 melanoma): > 100 µM
TGI (SK-OV-3 ovarian): > 100 µM
TGI (SNB-19 CNS): > 100 µM
TGI (SNB-78 CNS): > 100 µM
TGI (SR leukemia): > 100 µM
TGI (TK-10 renal): > 100 µM
TGI (U251 CNS): > 100 µM
TGI (UACC-257 melanoma): > 100 µM
TGI (UACC-62 melanoma): > 100 µM
TGI (UO-31 renal): > 100 µM

O=C(N/N=C(\C1=Nc2ccc(Cl)cc2NC1O)C(O)/C=C/c1ccccc1)c1ccncc1 (centres undefined)
TGI (786-0 renal): > 100 µM
TGI (A549 NSCLC): > 100 µM
TGI (ACHN renal): > 100 µM
TGI (CAKI-1 renal): > 100 µM
TGI (CCRF-CEM leukemia): > 100 µM
TGI (COLO 205 colon): > 100 µM
TGI (DLD-1 colon): > 100 µM
TGI (DMS 114 small cell lung): > 100 µM
TGI (DMS 273 small cell lung): > 100 µM
TGI (HCC-2998 colon): > 100 µM
TGI (HCT-116 colon): > 100 µM
TGI (HCT-15 colon): > 100 µM
TGI (HL-60(TB) leukemia): > 100 µM
TGI (HOP-62 NSCLC): > 100 µM
TGI (HOP-92 NSCLC): > 100 µM
TGI (HT29 colon): > 100 µM
TGI (IGROV1 ovarian): > 100 µM
TGI (K-562 leukemia): > 100 µM
TGI (KM12 colon): > 100 µM
TGI (KM20L2 colon): > 100 µM
TGI (LOX IMVI melanoma): > 100 µM
TGI (LXFL 529 NSCLC): > 100 µM
TGI (M14 melanoma): > 100 µM
TGI (M19-MEL melanoma): > 100 µM
TGI (MALME-3M melanoma): > 100 µM
TGI (MOLT-4 leukemia): > 100 µM
TGI (NCI-H226 lung): > 100 µM
TGI (NCI-H23 lung): > 100 µM
TGI (NCI-H460 lung): > 100 µM
TGI (NCI-H522 lung): > 100 µM
TGI (OVCAR-3 ovarian): > 100 µM
TGI (OVCAR-4 ovarian): > 100 µM
TGI (OVCAR-5 ovarian): > 100 µM
TGI (OVCAR-8 ovarian): > 100 µM
TGI (RPMI-8226 leukemia): > 100 µM
TGI (RXF 393 renal): > 100 µM
TGI (SF-268 CNS): > 100 µM
TGI (SF-295 CNS): > 100 µM
TGI (SF-539 CNS): > 100 µM
TGI (SK-MEL-28 melanoma): > 100 µM
TGI (SK-MEL-5 melanoma): > 100 µM
TGI (SK-OV-3 ovarian): > 100 µM
TGI (SN12C renal): > 100 µM
TGI (SNB-19 CNS): > 100 µM
TGI (SNB-75 CNS): > 100 µM
TGI (SNB-78 CNS): > 100 µM
TGI (SR leukemia): > 100 µM
TGI (SW-620 colon): > 100 µM
TGI (TK-10 renal): > 100 µM
TGI (U251 CNS): > 100 µM
TGI (UACC-257 melanoma): > 100 µM
TGI (UACC-62 melanoma): > 100 µM
TGI (UO-31 renal): > 100 µM
TGI (XF 498 CNS): > 100 µM

From PubChem BioAssay (NCI)
